Data: patent publication US20140213513A1 (Sanofi, priority 2012, published 2014)
pEC50: −log10 of the molar value. *1 amine or outer side, *2 acyl side, *3 side chain or, on linkers, in order; H or OH if unused. Where a SMILES comes first, the peptide text is derived from it. Side-chain parts run from the residue outwards. [ ]: non-standard residue; d: D form. The star is where a group is joined. γGlu = O=C(O)[C@H](CCC(=O)[*:2])N[*:1]; Stearoyl = CCCCCCCCCCCCCCCCCC(=O)*; Palmitoyl = CCCCCCCCCCCCCCCC(=O)*; Aib = CC(C)(N)C(=O)O

Assays:
Type in all cases: cell-based
Settings in all cases: Table 7; cAMP formation
[1] = target: T1, human GIP receptor (hGIP R) (Homo sapiens, UniProt P48546); assay: cAMP response of HEK-293 cells stably expressing human GIP receptor (HTRF)
T1 construct: expressed in transfected cells
T1 sequence (P48546 22-466): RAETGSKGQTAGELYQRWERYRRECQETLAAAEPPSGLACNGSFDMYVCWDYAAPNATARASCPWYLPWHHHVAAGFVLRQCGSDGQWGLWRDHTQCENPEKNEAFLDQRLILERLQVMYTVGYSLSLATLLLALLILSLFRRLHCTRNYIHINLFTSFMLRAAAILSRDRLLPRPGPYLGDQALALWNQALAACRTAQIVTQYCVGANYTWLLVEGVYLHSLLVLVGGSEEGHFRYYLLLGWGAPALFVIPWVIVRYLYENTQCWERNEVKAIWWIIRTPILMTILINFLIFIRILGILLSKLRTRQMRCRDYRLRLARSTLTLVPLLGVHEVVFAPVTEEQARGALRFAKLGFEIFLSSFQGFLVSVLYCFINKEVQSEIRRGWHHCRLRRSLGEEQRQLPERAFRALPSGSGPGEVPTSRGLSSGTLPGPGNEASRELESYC
Outline: (§1)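 HTRF read-out of cellular cAMP after 30 min compound exposure at room temperature. Accutase-detached cells were suspended at 400000 cells/ml in HBSS buffer containing 20 mM HEPES, 0.1% BSA and 2 mM IBMX phosphodiesterase inhibitor.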

[2] = target: T2, human glucagon receptor (hGLUC R) (Homo sapiens, UniProt P47871); assay: cAMP response of HEK-293 cells stably expressing human glucagon receptor (HTRF)
T2 construct: expressed in transfected cells
Outline: as §1

[3] = target: T3, human GLP-1 receptor (hGLP-1 R) (Homo sapiens, UniProt P43220); assay: cAMP response of HEK-293 cells stably expressing human GLP-1 receptor (HTRF)
T3 construct: expressed in transfected cells
Outline: as §1

T2 sequence (P47871 26-477): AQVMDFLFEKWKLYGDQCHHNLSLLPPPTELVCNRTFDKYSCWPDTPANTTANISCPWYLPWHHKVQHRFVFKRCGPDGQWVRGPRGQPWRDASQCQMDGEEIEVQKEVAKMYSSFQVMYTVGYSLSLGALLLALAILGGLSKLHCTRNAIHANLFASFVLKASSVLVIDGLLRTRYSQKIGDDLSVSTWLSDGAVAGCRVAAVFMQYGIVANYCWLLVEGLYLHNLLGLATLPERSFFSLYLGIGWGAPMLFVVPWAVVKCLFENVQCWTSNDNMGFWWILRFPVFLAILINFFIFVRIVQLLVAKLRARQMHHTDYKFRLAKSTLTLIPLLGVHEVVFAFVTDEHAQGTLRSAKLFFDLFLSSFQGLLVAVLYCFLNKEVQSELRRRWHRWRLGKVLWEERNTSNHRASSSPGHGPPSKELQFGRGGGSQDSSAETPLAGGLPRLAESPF
T3 sequence (P43220 24-463): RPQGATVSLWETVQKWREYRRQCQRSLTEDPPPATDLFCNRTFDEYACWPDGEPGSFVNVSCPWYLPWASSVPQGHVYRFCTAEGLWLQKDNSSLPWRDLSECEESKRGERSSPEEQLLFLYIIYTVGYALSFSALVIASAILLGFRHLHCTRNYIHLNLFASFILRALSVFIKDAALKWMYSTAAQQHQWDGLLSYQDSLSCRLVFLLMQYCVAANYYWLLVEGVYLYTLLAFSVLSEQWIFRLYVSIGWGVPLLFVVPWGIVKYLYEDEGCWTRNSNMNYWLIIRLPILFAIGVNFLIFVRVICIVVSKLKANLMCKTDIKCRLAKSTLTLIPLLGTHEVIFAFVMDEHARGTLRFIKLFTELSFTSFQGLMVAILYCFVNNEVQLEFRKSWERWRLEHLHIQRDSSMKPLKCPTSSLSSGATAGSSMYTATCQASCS

Row | Structure (SMILES) | pEC50 [1] | pEC50 [2] | pEC50 [3]
1 | CCCCCCCCCCCCCCCC(=O)N[C@@H](CCC(=O)NCCCC[C@H](NC(=O)[C@H](CCC(N)=O)NC(=O)[C@@H](NC(=O)[C@H](CO)NC(=O)[C@H](CC(C)C)NC(=O)[C@H](CC(=O)O)NC(=O)[C@H](CO)NC(=O)[C@@H](NC(=O)[C@H](Cc1ccccc1)NC(=O)[C@@H](NC(=O)CNC(=O)[C@H](CCC(N)=O)NC(=O)C(C)(C)NC(=O)[C@@H](N)Cc1ccc(O)cc1)[C@@H](C)O)[C@@H](C)O)[C@@H](C)CC)C(=O)N[C@@H](CCC(=O)O)C(=O)N[C@@H](CCCCN)C(=O)N[C@@H](CCCNC(=N)N)C(=O)N[C@@H](CC(C)C)C(=O)N[C@@H](C)C(=O)NC(C)(C)C(=O)N[C@@H](CCC(=O)O)C(=O)N[C@@H](Cc1ccccc1)C(=O)N[C@H](C(=O)N[C@@H](CCC(=O)O)C(=O)N[C@@H](Cc1c[nH]c2ccccc12)C(=O)N[C@@H](CC(C)C)C(=O)N[C@@H](CCCCN)C(=O)N[C@@H](CC(N)=O)C(=O)N[C@H](C(=O)NCC(=O)N1CCC[C@H]1C(=O)N[C@@H](CO)C(=O)N[C@@H](CO)C(=O)NCC(=O)N[C@@H](C)C(=O)N1CCC[C@H]1C(=O)N1CCC[C@H]1C(=O)N1CCC[C@H]1C(=O)N[C@@H](CO)C(N)=O)[C@@H](C)O)[C@@H](C)CC)C(=O)O [SEQ ID NO: 19, Y-Aib-Q-G-T-F-T-S-D-L-S-I-Q-K(yE-x53)-E-K-R-L-A-Aib-E-F-I-E-W-L-K-N-T-G-P-S-S-G-A-P-P-P-S-NH2] (H-Y[Aib]QGTFTSDLSIQK([γGlu-Palmitoyl])EKRLA[Aib]EFIEWLKNTGPSSGAPPPS-NH2) | 10.04 | 9.86 | 11.07
2 | CCCCCCCCCCCCCCCC(=O)N[C@@H](CCC(=O)NCCCC[C@H](NC(=O)[C@H](CCC(N)=O)NC(=O)[C@@H](NC(=O)[C@H](CO)NC(=O)[C@H](CC(C)C)NC(=O)[C@H](CC(=O)O)NC(=O)[C@H](CO)NC(=O)[C@@H](NC(=O)[C@H](Cc1ccccc1)NC(=O)[C@@H](NC(=O)CNC(=O)[C@H](CCC(=O)O)NC(=O)C(C)(C)NC(=O)[C@@H](N)Cc1ccc(O)cc1)[C@@H](C)O)[C@@H](C)O)[C@@H](C)CC)C(=O)N[C@@H](CC(=O)O)C(=O)N[C@@H](CCCCN)C(=O)N[C@@H](CCCNC(=N)N)C(=O)N[C@@H](C)C(=O)N[C@@H](C)C(=O)N[C@@H](CCC(N)=O)C(=O)N[C@@H](CC(C)C)C(=O)N[C@@H](Cc1ccccc1)C(=O)N[C@H](C(=O)N[C@@H](CCC(=O)O)C(=O)N[C@@H](Cc1c[nH]c2ccccc12)C(=O)N[C@@H](CC(C)C)C(=O)N[C@@H](CCCCN)C(=O)N[C@@H](CC(N)=O)C(=O)NCC(=O)NCC(=O)N1CCC[C@H]1C(=O)N[C@@H](CO)C(=O)N[C@@H](CO)C(=O)NCC(=O)N[C@@H](C)C(=O)N1CCC[C@H]1C(=O)N1CCC[C@H]1C(=O)N1CCC[C@H]1C(=O)N[C@@H](CO)C(N)=O)[C@@H](C)CC)C(=O)O [SEQ ID NO: 55, Y-Aib-E-G-T-F-T-S-D-L-S-I-Q-K(yE-x53)-DKRAAQLFIEWLKNGGPSSGAPPPS-NH2] (H-Y[Aib]EGTFTSDLSIQK([γGlu-Palmitoyl])DKRAAQLFIEWLKNGGPSSGAPPPS-NH2) | 10.81 | 7.74 | 10.79
3 | CCCCCCCCCCCCCCCCCC(=O)N[C@@H](CCC(=O)NCCCC[C@H](NC(=O)[C@H](CCC(N)=O)NC(=O)[C@H](CCCCN)NC(=O)[C@H](CO)NC(=O)[C@H](CC(C)C)NC(=O)[C@H](CC(=O)O)NC(=O)[C@H](CO)NC(=O)[C@@H](NC(=O)[C@H](Cc1ccccc1)NC(=O)[C@@H](NC(=O)CNC(=O)[C@H](CCC(N)=O)NC(=O)C(C)(C)NC(=O)[C@@H](N)Cc1ccc(O)cc1)[C@@H](C)O)[C@@H](C)O)C(=O)N[C@@H](CC(=O)O)C(=O)N[C@@H](CO)C(=O)N[C@@H](CCCCN)C(=O)N[C@@H](C)C(=O)N[C@@H](C)C(=O)N[C@@H](CCC(N)=O)C(=O)N[C@@H](CC(=O)O)C(=O)N[C@@H](Cc1ccccc1)C(=O)N[C@H](C(=O)N[C@@H](CCC(=O)O)C(=O)N[C@@H](Cc1c[nH]c2ccccc12)C(=O)N[C@@H](CC(C)C)C(=O)N[C@@H](CCCCN)C(=O)N[C@@H](C)C(=O)NCC(=O)NCC(=O)N1CCC[C@H]1C(=O)N[C@@H](CO)C(=O)N[C@@H](CO)C(=O)NCC(=O)N[C@@H](C)C(=O)N1CCC[C@H]1C(=O)N1CCC[C@H]1C(=O)N1CCC[C@H]1C(=O)N[C@@H](CO)C(N)=O)[C@@H](C)CC)C(=O)O [SEQ ID NO: 41, Y-Aib-Q-G-T-F-T-S-D-L-S-K-Q-K(yE-x70)-DSKAAQDFIEWLKAGGPSSGAPPPS-NH2] (H-Y[Aib]QGTFTSDLSKQK([γGlu-Stearoyl])DSKAAQDFIEWLKAGGPSSGAPPPS-NH2) | 9.73 | 10.58 | 10.62
4 | CCCCCCCCCCCCCCCC(=O)N[C@@H](CCC(=O)NCCCC[C@H](NC(=O)[C@H](CCC(N)=O)NC(=O)[C@@H](NC(=O)[C@H](CO)NC(=O)[C@H](CC(C)C)NC(=O)[C@H](CC(=O)O)NC(=O)[C@H](CO)NC(=O)[C@@H](NC(=O)[C@H](Cc1ccccc1)NC(=O)[C@@H](NC(=O)CNC(=O)[C@H](CCC(N)=O)NC(=O)C(C)(C)NC(=O)[C@@H](N)Cc1ccc(O)cc1)[C@@H](C)O)[C@@H](C)O)[C@@H](C)CC)C(=O)N[C@@H](CC(=O)O)C(=O)N[C@@H](CO)C(=O)N[C@H](C(=O)N[C@@H](C)C(=O)N[C@@H](C)C(=O)N[C@@H](CCC(N)=O)C(=O)N[C@@H](CC(=O)O)C(=O)N[C@@H](Cc1ccccc1)C(=O)N[C@H](C(=O)N[C@@H](CCC(=O)O)C(=O)N[C@@H](Cc1c[nH]c2ccccc12)C(=O)N[C@@H](CC(C)C)C(=O)N[C@@H](CCCCN)C(=O)N[C@@H](C)C(=O)NCC(=O)NCC(=O)N1CCC[C@H]1C(=O)N[C@@H](CO)C(=O)N[C@@H](CO)C(=O)NCC(=O)N[C@@H](C)C(=O)N1CCC[C@H]1C(=O)N1CCC[C@H]1C(=O)N1CCC[C@H]1C(=O)N[C@@H](CO)C(N)=O)[C@@H](C)CC)[C@@H](C)CC)C(=O)O [SEQ ID NO: 49, Y-Aib-Q-G-T-F-T-S-D-L-S-I-Q-K(yE-x53)-DSIAAQDFIEWLKAGGPSSGAPPPS-NH2] (H-Y[Aib]QGTFTSDLSIQK([γGlu-Palmitoyl])DSIAAQDFIEWLKAGGPSSGAPPPS-NH2) | 10.34 | 9.71 | 10.76
5 | CCCCCCCCCCCCCCCC(=O)N[C@@H](CCC(=O)NCCCC[C@H](NC(=O)[C@H](CCC(N)=O)NC(=O)[C@@H](NC(=O)[C@H](CO)NC(=O)[C@H](CC(C)C)NC(=O)[C@H](CC(=O)O)NC(=O)[C@H](CO)NC(=O)[C@@H](NC(=O)[C@H](Cc1ccccc1)NC(=O)[C@@H](NC(=O)CNC(=O)[C@H](CCC(N)=O)NC(=O)C(C)(C)NC(=O)[C@@H](N)Cc1ccc(O)cc1)[C@@H](C)O)[C@@H](C)O)[C@@H](C)CC)C(=O)N[C@@H](CCC(=O)O)C(=O)N[C@@H](CCCCN)C(=O)N[C@@H](CCCNC(=N)N)C(=O)N[C@@H](C)C(=O)N[C@@H](C)C(=O)NC(C)(C)C(=O)N[C@@H](Cc1ccc(O)cc1)C(=O)N[C@@H](Cc1ccccc1)C(=O)N[C@H](C(=O)N[C@@H](CCC(=O)O)C(=O)N[C@@H](Cc1c[nH]c2ccccc12)C(=O)N[C@@H](CC(C)C)C(=O)N[C@@H](CCCCN)C(=O)N[C@@H](CC(N)=O)C(=O)N[C@H](C(=O)NCC(=O)N1CCC[C@H]1C(=O)N[C@@H](CO)C(=O)N[C@@H](CO)C(=O)NCC(=O)N[C@@H](C)C(=O)N1CCC[C@H]1C(=O)N1CCC[C@H]1C(=O)N1CCC[C@H]1C(=O)N[C@@H](CO)C(N)=O)[C@@H](C)O)[C@@H](C)CC)C(=O)O [SEQ ID NO: 23, Y-Aib-Q-G-T-F-T-S-D-L-S-I-Q-K(yE-x53)-E-K-R-A-A-Aib-Y-F-I-E-W-L-K-N-T-G-P-S-S-G-A-P-P-P-S-NH2] (H-Y[Aib]QGTFTSDLSIQK([γGlu-Palmitoyl])EKRAA[Aib]YFIEWLKNTGPSSGAPPPS-NH2) | 9.87 | 9.51 | 11.04
6 | CCCCCCCCCCCCCCCC(=O)N[C@@H](CCC(=O)NCCCC[C@H](NC(=O)[C@H](CCC(N)=O)NC(=O)[C@@H](NC(=O)[C@H](CO)NC(=O)[C@H](CC(C)C)NC(=O)[C@H](CC(=O)O)NC(=O)[C@H](CO)NC(=O)[C@@H](NC(=O)[C@H](Cc1ccccc1)NC(=O)[C@@H](NC(=O)CNC(=O)[C@H](CCC(N)=O)NC(=O)C(C)(C)NC(=O)[C@@H](N)Cc1ccc(O)cc1)[C@@H](C)O)[C@@H](C)O)[C@@H](C)CC)C(=O)N[C@@H](CC(=O)O)C(=O)N[C@@H](CCC(=O)O)C(=O)N[C@@H](CCCNC(=N)N)C(=O)N[C@@H](C)C(=O)N[C@@H](C)C(=O)N[C@@H](CCCCN)C(=O)N[C@@H](CC(=O)O)C(=O)N[C@@H](Cc1ccccc1)C(=O)N[C@H](C(=O)N[C@@H](CCC(=O)O)C(=O)N[C@@H](Cc1c[nH]c2ccccc12)C(=O)N[C@@H](CC(C)C)C(=O)N[C@@H](CCCCN)C(=O)N[C@@H](C)C(=O)NCC(=O)NCC(=O)N1CCC[C@H]1C(=O)N[C@@H](CO)C(=O)N[C@@H](CO)C(=O)NCC(=O)N[C@@H](C)C(=O)N1CCC[C@H]1C(=O)N1CCC[C@H]1C(=O)N1CCC[C@H]1C(=O)N[C@@H](CO)C(N)=O)[C@@H](C)CC)C(=O)O [SEQ ID NO: 35, Y-Aib-Q-G-T-F-T-S-D-L-S-I-Q-K(yE-x53)-DERAAKDFIEWLKAGGPSSGAPPPS-NH2] (H-Y[Aib]QGTFTSDLSIQK([γGlu-Palmitoyl])DERAAKDFIEWLKAGGPSSGAPPPS-NH2) | 10.74 | 9.91 | 11.46
